Reference: US20150023989A1, “NEW ANTIBODY DRUG CONJUGATES (ADCS) AND THE USE THEREOF” (SEATTLE GENETICS, INC., priority 2011, published 2015)
Where a name gives a salt, the structure may show the parent alone. Where a SMILES comes first, the peptide text is derived from it. [ ]: non-standard residue; d: D form. The star is where a group is joined. X2 = CC(C)[C@@H](C(=O)*)N(C)CCCCCCN1C(=O)CC(SC[C@H](N)C(=O)O)C1=O; X3 = CC(C)[C@@H](C(=O)*)N(C)CCOCCOCCOCCC(=O)NCCCC[C@H](N)C(=O)O; X1 = CC(C)[C@@H](C(=O)*)N(C)CCCCCC(=O)NCCCC[C@H](N)C(=O)O; Dolaproine = CO[C@@H]([C@@H]1CCCN1)[C@@H](C)C(=O)O; Dil = CC[C@H](C)[C@H](NC)[C@@H](CC(=O)O)OC; X4 = C[C@@H](N*)[C@@H](O)c1ccccc1; Oxazinan2yl(1,2) = C1CCN(*)OC1; NMeV = CN[C@H](C(=O)O)C(C)C

Legend:
[1] = tested on: tubulin; assay: Fluorescence-based microtubule polymerisation assay; type: biochemical; settings: rate at 1 μM MMAF set at 100%
Protocol: Tubulin polymerization was investigated using the “Fluorescence-based Microtubule Polymerisation Assay Kit” from Cytoskeleton (Denver, Colo., USA; order number: BK011). With this assay, GTP is added to unpolymerized tubulin, allowing polymerization to take place spontaneously. The assay is based on the binding of the fluorophore 4′,6-diamidino-2-phenylindole (DAPI) to tubulin. Free and bound DAPI can be differentiated on the basis of different emission spectra.
In addition to the buffer control, paclitaxel, with a polymerization-increasing effect, and vinblastin, with a polymerization inhibiting effect, were run additionally as assay controls. Measurement was carried out using 96-well plates with a half base area. The kinetics of the tubulin polymerization were monitored in a Fluorimeter at 37° C. for 1 hour. The excitation wavelength was 355 nm, and emission was monitored at 460 nm. For the region of linear increase within the first 10 minutes, a calculation was made of the change in fluorescence per minute (ΔF/min), which represents the polymerization rate of the microtubuli. The potency of the test substances was quantified on the basis of their respective reduction of the polymerization rate. Table 6 below gives data for the influence of representative working examples on tubulin polymerization.

[2] = tested on: Caco-2 cells; assay: Flux assay using Caco-2 cells (cell permeability); type: in vitro ADME; settings: 2 hours incubation
Protocol: (§1) The cell permeability of a substance can be investigated by means of in vitro testing in a flux assay using Caco-2 cells [M. D. Troutman and D. R. Thakker, Pharm. Res. 20 (8), 1210-1224 (2003)]. For this purpose, the cells were cultured for 15-16 days on 24-well filter plates. For the determination of permeation, the respective working example was applied in a HEPES buffer to the cells either apically (A) or basally (B) and incubated for 2 hours. After 0 hours and after 2 hours, samples were taken from the cis and trans compartments. The samples were separated by HPLC (Agilent 1200, Böblingen, Germany) using reverse phase columns. The HPLC system was coupled via a Turbo Ion Spray Interface to a Triple Quadropol mass spectrometer API 4000 (Applied Biosystems Applera, Darmstadt, Germany). The permeability was evaluated on the basis of a Papp value, which was calculated using the formula published by Schwab et al. [D. Schwab et al., J. Med. Chem. 46, 1716-1725 (2003)].

[3] = Flux assay using Caco-2 cells (cell permeability); type: in vitro ADME; settings: human, 2 hours incubation
Protocol: as §1

Row | SMILES | Tubulin polymerization in the presence of toxophore ([1]; toxophore 1 μM) [%] | Tubulin polymerization in the presence of toxophore ([1]; toxophore 10 μM) [%] | Papp (B-A) [2] [nm/s] | Papp B→A at 2 h [3] [nm/s]
1 | CC[C@H](C)[C@@H]([C@@H](CC(=O)N1CCC[C@H]1[C@H](OC)[C@@H](C)C(=O)N[C@@H](Cc1ccccc1)C(=O)O)OC)N(C)C(=O)[C@@H](NC(=O)[C@@H](NC)C(C)C)C(C)C [monomethylauristatin F (MMAF), monomethylauristatin F, reference compound] (H-[NMeV]V[Dil][Dolaproine]F-OH) | 100 | 34 | 73 | –
2 | CC[C@H](C)[C@@H]([C@@H](CC(=O)N1CCC[C@H]1[C@H](OC)[C@@H](C)C(=O)N[C@@H](Cc1c[nH]c2ccccc12)C(=O)O)OC)N(C)C(=O)[C@@H](NC(=O)[C@H](C(C)C)N(C)CCCCCCN1C(=O)CC(SC[C@H](N)C(=O)O)C1=O)C(C)C (stereo partly drawn) [Example 23, N-[6-(3-{[(2R)-2-Amino-2-carboxyethyl]sulphanyl}-2,5-dioxopyrrolidin-1-yl)hexyl]-N-methyl-L-valyl-N-[(3R,4S,5S)-1-{(2S)-2-[(1R,2R)-3-{[(1S)-1-carboxy-2-(1H-indol-3-yl)ethyl]amino}-1-methoxy-2-methyl-3-oxopropyl]pyrrolidin-1-yl}-3-methoxy-5-methyl-1-oxoheptan-4-yl]-N-methyl-L-valinamide] (X2-V[Dil][Dolaproine]W-OH) | – | – | – | 1
3 | CC[C@H](C)[C@@H]([C@@H](CC(=O)N1CCC[C@H]1[C@H](OC)[C@@H](C)C(=O)N[C@@H](Cc1c[nH]c2ccccc12)C(=O)N1CCCCO1)OC)N(C)C(=O)[C@@H](NC(=O)[C@H](C(C)C)N(C)CCCCCCN1C(=O)CC(SC[C@H](N)C(=O)O)C1=O)C(C)C (stereo partly drawn) [Example 24, N-[6-(3-{[(2R)-2-Amino-2-carboxyethyl]sulphanyl}-2,5-dioxopyrrolidin-1-yl)hexyl]-N-methyl-L-valyl-N-[(3R,4S,5S)-1-{(2S)-2-[(1R,2R)-3-{[(2S)-3-(1H-indol-3-yl)-1-(1,2-oxazinan-2-yl)-1-oxopropan-2-yl]amino}-1-methoxy-2-methyl-3-oxopropyl]pyrrolidin-1-yl}-3-methoxy-5-methyl-1-oxoheptan-4-yl]-N-methyl-L-valinamide] (X2-V[Dil][Dolaproine]W-{Oxazinan2yl(1,2)}) | 121 | 35 | – | –
4 | CC[C@H](C)[C@@H]([C@@H](CC(=O)N1CCC[C@H]1[C@H](OC)[C@@H](C)C(=O)N[C@@H](Cc1ccc(O)cc1)C(=O)O)OC)N(C)C(=O)[C@@H](NC(=O)[C@H](C(C)C)N(C)CCCCCC(=O)NCCCC[C@H](N)C(=O)O)C(C)C [Example 37, N-(6-{[(5S)-5-Amino-5-carboxypentyl]amino}-6-oxohexyl)-N-methyl-L-valyl-N-[(3R,4S,5S)-1-{(2S)-2-[(1R,2R)-3-{[(1S)-1-carboxy-2-(4-hydroxyphenyl)ethyl]amino}-1-methoxy-2-methyl-3-oxopropyl]pyrrolidin-1-yl}-3-methoxy-5-methyl-1-oxoheptan-4-yl]-N-methyl-L-valinamide trifluoroacetate] (X1-V[Dil][Dolaproine]Y-OH) | – | – | – | 0.9
5 | CC[C@H](C)[C@@H]([C@@H](CC(=O)N1CCC[C@H]1[C@H](OC)[C@@H](C)C(=O)N[C@@H](Cc1c[nH]c2ccccc12)C(=O)N1CCCCO1)OC)N(C)C(=O)[C@@H](NC(=O)[C@H](C(C)C)N(C)CCCCCC(=O)NCCCC[C@H](N)C(=O)O)C(C)C [Example 18, N-(6-{[(5S)-5-Amino-5-carboxypentyl]amino}-6-oxohexyl)-N-methyl-L-valyl-N-[(3R,4S,5S)-1-{(2S)-2-[(1R,2R)-3-{[(2S)-3-(1H-indol-3-yl)-1-(1,2-oxazinan-2-yl)-1-oxopropan-2-yl]amino}-1-methoxy-2-methyl-3-oxopropyl]pyrrolidin-1-yl}-3-methoxy-5-methyl-1-oxoheptan-4-yl]-N-methyl-L-valinamide trifluoroacetate] (X1-V[Dil][Dolaproine]W-{Oxazinan2yl(1,2)}) | 45 | 1 | – | 2
6 | CC[C@H](C)[C@@H]([C@@H](CC(=O)N1CCC[C@H]1[C@H](OC)[C@@H](C)C(=O)N[C@@H](Cc1c[nH]c2ccccc12)C(N)=O)OC)N(C)C(=O)[C@@H](NC(=O)[C@H](C(C)C)N(C)CCCC(=O)NNC(=O)CCCCCN1C(=O)CC(SC[C@H](N)C(=O)O)C1=O)C(C)C (stereo partly drawn) [Example 21, N-(4-{2-[6-(3-{[(2R)-2-Amino-2-carboxyethyl]sulphanyl}-2,5-dioxopyrrolidin-1-yl)hexanoyl]hydrazino}-4-oxobutyl)-N-methyl-L-valyl-N-[(3R,4S,5S)-1-{(2S)-2-[(1R,2R)-3-{[(2S)-1-amino-3-(1H-indol-3-yl)-1-oxopropan-2-yl]amino}-1-methoxy-2-methyl-3-oxopropyl]pyrrolidin-1-yl}-3-methoxy-5-methyl-1-oxoheptan-4-yl]-N-methyl-L-valinamide] | 88 | 25 | – | 2
7 | CC[C@H](C)[C@@H]([C@@H](CC(=O)N1CCC[C@H]1[C@H](OC)[C@@H](C)C(=O)N[C@@H](Cc1c[nH]c2ccccc12)C(=O)N1CCCCO1)OC)N(C)C(=O)[C@@H](NC(=O)[C@H](C(C)C)N(C)CCOCCOCCOCCC(=O)NCCCC[C@H](N)C(=O)O)C(C)C [Example 20, N-[(18S)-18-Amino-18-carboxy-12-oxo-3,6,9-trioxa-13-azaoctadec-1-yl]-N-methyl-L-valyl-N-[(3R,4S,5S)-1-{(2S)-2-[(1R,2R)-3-{[(2S)-3-(1H-indol-3-yl)-1-(1,2-oxazinan-2-yl)-1-oxopropan-2-yl]amino}-1-methoxy-2-methyl-3-oxopropyl]pyrrolidin-1-yl}-3-methoxy-5-methyl-1-oxoheptan-4-yl]-N-methyl-L-valinamide trifluoroacetate] (X3-V[Dil][Dolaproine]W-{Oxazinan2yl(1,2)}) | 60 | 0 | – | –
8 | CC[C@H](C)[C@@H]([C@@H](CC(=O)N1CCC[C@H]1[C@H](OC)[C@@H](C)C(=O)N[C@@H](Cc1ccc(O)cc1)C(=O)N1CCCCO1)OC)N(C)C(=O)[C@@H](NC(=O)[C@H](C(C)C)N(C)CCCCCC(=O)NCCCC[C@H](N)C(=O)O)C(C)C [Example 36, N-(6-{[(5S)-5-Amino-5-carboxypentyl]amino}-6-oxohexyl)-N-methyl-L-valyl-N-[(3R,4S,5S)-1-{(2S)-2-[(1R,2R)-3-{[(2S)-3-(4-hydroxyphenyl)-1-(1,2-oxazinan-2-yl)-1-oxopropan-2-yl]amino}-1-methoxy-2-methyl-3-oxopropyl]pyrrolidin-1-yl}-3-methoxy-5-methyl-1-oxoheptan-4-yl]-N-methyl-L-valinamide trifluoroacetate] (X1-V[Dil][Dolaproine]Y-{Oxazinan2yl(1,2)}) | – | – | – | 1.5
9 | CC[C@H](C)[C@@H]([C@@H](CC(=O)N1CCC[C@H]1[C@H](OC)[C@@H](C)C(=O)N[C@H](C)[C@@H](O)c1ccccc1)OC)N(C)C(=O)[C@@H](NC(=O)[C@@H](NC)C(C)C)C(C)C [monomethylauristatin E (MMAE), monomethylauristatin E, reference compound] (H-[NMeV]V[Dil][Dolaproine]-X4) | – | – | 73 | –
10 | CC[C@H](C)[C@@H]([C@@H](CC(=O)N1CCC[C@H]1[C@H](OC)[C@@H](C)C(=O)N[C@@H](Cc1c[nH]c2ccccc12)C(=O)O)OC)N(C)C(=O)[C@@H](NC(=O)[C@H](C(C)C)N(C)CCCCCC(=O)NCCCC[C@H](N)C(=O)O)C(C)C [Example 19, N-(6-{[(5S)-5-Amino-5-carboxypentyl]amino}-6-oxohexyl)-N-methyl-L-valyl-N-[(3R,4S,5S)-1-{(2S)-2-[(1R,2R)-3-{[(1S)-1-carboxy-2-(1H-indol-3-yl)ethyl]amino}-1-methoxy-2-methyl-3-oxopropyl]pyrrolidin-1-yl}-3-methoxy-5-methyl-1-oxoheptan-4-yl]-N-methyl-L-valinamide] (X1-V[Dil][Dolaproine]W-OH) | 80 | 14 | – | 1
